Measurements as given in US20230167103A1 (Bayer Aktiengesellschaft, priority 2020, published 2023).
pIC50: −log10 of the molar value.

Molecular target: T1, human DGKζ (Homo sapiens, UniProt Q13574)
T1 construct: made in house; host or cells: Sf9 insect cells, baculovirus
Assay: Human DGKζ kinase activity inhibition assay (ADP-Glo)
Type: biochemical
Settings: example compounds; recombinant full-length human DGKζ, 1,2-dioleoyl-sn-glycerol 7 μM, ATP 55 μM, 20 min at 22° C.; read-out: IC50 values of examples in in vitro human DGKζ kinase activity inhibition assays
Experimental: Human diacylglycerol kinase zeta (DGKζ) inhibitory activity of compounds of the present invention was quantified employing the human DGKζ kinase activity assay as described in the following paragraphs. In essence, the enzyme activity was measured by quantification of the adenosine-di-phosphate (ADP) generated as a co-product of the enzyme reaction via the “ADP-Glo™ Kinase Assay” kit from the company Promega. This detection system works as follows: In a first step the adenosine-tri-phosphate (ATP) not consumed in the kinase reaction is quantitatively converted to cyclic adenosine-mono-phosphate (cAMP) employing an adenylate cyclase (“ADP-Glo-reagent”), then the adenylate cyclase is stopped and the ADP generated in the kinase reaction is converted to ATP, which subsequently generates in a luciferase-based reaction a glow-luminescence signal (“Kinase Detection Reagent”).
C-terminally FLAG-tagged, recombinant full-length human DGKζ (inhouse expressed in baculovirus infected insect cells, purified using anti-Flag pulldown and size exclusion chromatography) was used as enzyme. As an alternative, commercially available enzyme by Carnabio can be used. As substrate for the kinase, 1,2-dioleoyl-sn-glycerol, reconstituted in octyl-β-D-glucopyranoside micelles, was used. […] Subsequently, 22.55 volumes of a 510 mM solution of octyl-β-D-glucopyranoside (Sigma-Aldrich, Cat. #O8001-10G) in 50 mM MOPS buffer (pH 7.4) were added, and the mixture was sonicated in an ultrasonic bath for 20 s. Then 35 volumes of 50 mM MOPS buffer (pH 7.4) were added to yield a solution of 0.28 mM 1,2 dioleoyl-sn-glycerol and 200 mM octyl-β-D-glucopyranoside, which was aliquoted, flash-frozen in liquid nitrogen, and stored at −20° C. until use.
For the assay 50 nl of a 100-fold concentrated solution of the test compound in dimethyl sulfoxide (DMSO, Sigma) was pipetted into either a white 1536-well or a white low-volume 384-well microtiter plate (both Greiner Bio-One, Frickenhausen, Germany). […] The concentration of DGKζ was adjusted depending of the activity of the enzyme lot and was chosen appropriate to have the assay in the linear range, a typical concentration is about 0.1 nM. The reaction was stopped by the addition of 2.5 μL of “ADP-Glo-reagent” (1 to 1.5 diluted with water) and the resulting mixture was incubated at 22° C. for 1 h to convert the ATP not consumed in the kinase reaction completely to cAMP. Subsequently 2.5 μl of the “kinase detection reagent” (1.2 fold more concentrated than recommended by the producer) were added, the resulting mixture was incubated at 22° C. for 1 h and then the luminescence measured with a suitable measurement instrument (e.g. Viewlux™ from Perkin-Elmer). The amount of emitted light was taken as a measure for the amount of ADP generated and thereby for the activity of the DGKζ.
The data were normalised (enzyme reaction without inhibitor=0% inhibition, all other assay components but no enzyme=100% inhibition).

T1 sequence (Q13574 with tags, fused parts or gaps): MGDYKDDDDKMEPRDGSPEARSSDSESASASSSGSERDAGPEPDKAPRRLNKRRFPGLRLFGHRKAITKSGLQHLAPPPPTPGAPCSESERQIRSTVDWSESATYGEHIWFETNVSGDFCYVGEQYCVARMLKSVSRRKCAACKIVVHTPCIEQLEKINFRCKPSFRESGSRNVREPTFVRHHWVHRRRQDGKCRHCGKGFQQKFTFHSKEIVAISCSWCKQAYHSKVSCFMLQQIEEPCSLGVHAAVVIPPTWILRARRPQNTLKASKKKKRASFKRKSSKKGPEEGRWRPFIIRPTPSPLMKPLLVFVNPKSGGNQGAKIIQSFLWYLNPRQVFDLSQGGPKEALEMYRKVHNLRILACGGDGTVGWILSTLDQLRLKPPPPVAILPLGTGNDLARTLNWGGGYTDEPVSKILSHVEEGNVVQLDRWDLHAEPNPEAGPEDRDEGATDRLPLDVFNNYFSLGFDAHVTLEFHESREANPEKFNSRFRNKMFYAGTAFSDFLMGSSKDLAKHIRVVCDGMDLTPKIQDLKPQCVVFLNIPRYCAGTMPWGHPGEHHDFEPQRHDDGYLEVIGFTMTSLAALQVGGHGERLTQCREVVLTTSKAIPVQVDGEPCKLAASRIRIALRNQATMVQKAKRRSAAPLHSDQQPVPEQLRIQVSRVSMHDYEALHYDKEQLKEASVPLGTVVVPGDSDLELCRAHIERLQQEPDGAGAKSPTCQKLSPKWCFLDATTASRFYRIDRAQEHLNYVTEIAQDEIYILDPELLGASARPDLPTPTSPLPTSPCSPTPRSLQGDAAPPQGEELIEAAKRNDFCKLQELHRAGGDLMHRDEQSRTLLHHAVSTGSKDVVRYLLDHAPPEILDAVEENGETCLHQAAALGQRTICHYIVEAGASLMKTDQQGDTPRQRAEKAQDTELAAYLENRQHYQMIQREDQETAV

SMILES | pIC50
CC(C(N)=O)N(c1ccc(F)cc1)c1nc(N)c(C(=O)c2cc(CN3CCC(F)(F)C(C)C3)no2)s1 (mixture of isomers) [Example 76, 2-(N-[4-amino-5-[3-[(4,4-difluoro-3-methyl-1-piperidyl)methyl]isoxazole-5-carbonyl]thiazol-2-yl]-4-fluoro-anilino)propanamide] | 8.00
CC(C(N)=O)N(c1ccc(F)cc1)c1nc(N)c(C(=O)c2cc(CN3CCC(F)C3)no2)s1 (mixture of isomers) [Example 77, 2-(N-[4-amino-5-[3-[(3-fluoropyrrolidin-1-yl)methyl]isoxazole-5-carbonyl]thiazol-2-yl]-4-fluoro-anilino)propanamide] | 6.62
CC(C(N)=O)N(c1ccc(F)cc1)c1nc(N)c(C(=O)c2nc(-c3ccc(Cl)cc3)no2)s1 (racemic) [Example 1, rac-2-(N-[4-amino-5-[3-(4-chlorophenyl)-1,2,4-oxadiazole-5-carbonyl]thiazol-2-yl]-4-fluoro-anilino)propanamide] | 8.05
CC(C(N)=O)N(c1ccc(F)cc1)c1nc(N)c(C(=O)c2cc(OCc3ccccc3)no2)s1 (racemic) [Example 2, rac-2-(N-[4-amino-5-(3-benzyloxyisoxazole-5-carbonyl)thiazol-2-yl]-4-fluoro-anilino)propanamide] | 7.57
CC(C(N)=O)N(c1ccc(F)cc1)c1nc(N)c(C(=O)c2cc(-c3ccccc3)no2)s1 (racemic) [Example 3, rac-2-(N-[4-amino-5-(3-phenylisoxazole-5-carbonyl)thiazol-2-yl]-4-fluoro-anilino)propanamide] | 6.98
CC(C(N)=O)N(c1ccc(F)cc1)c1nc(N)c(C(=O)c2cc(-c3ccc(Cl)cc3Cl)no2)s1 (racemic) [Example 4, rac-2-(N-[4-amino-5-[3-(2,4-dichlorophenyl)isoxazole-5-carbonyl]thiazol-2-yl]-4-fluoro-anilino)propanamide] | 7.43
CC(C(N)=O)N(c1ccc(F)cc1)c1nc(N)c(C(=O)c2cc(-c3ccc(Cl)cc3)no2)s1 (racemic) [Example 5, rac-2-(N-[4-amino-5-[3-(4-chlorophenyl)isoxazole-5-carbonyl]thiazol-2-yl]-4-fluoro-anilino)propanamide] | 7.17
CC(C(N)=O)N(c1ccc(F)cc1)c1nc(N)c(C(=O)c2cc(Br)no2)s1 (racemic) [Example 6, rac-2-(N-[4-amino-5-(3-bromoisoxazole-5-carbonyl)thiazol-2-yl]-4-fluoro-anilino)propanamide] | 6.91
CC(C(N)=O)N(c1ccc(F)cc1)c1nc(N)c(C(=O)c2cc(-c3cccnc3)no2)s1 (racemic) [Example 7, rac-2-(N-[4-amino-5-[3-(3-pyridyl)isoxazole-5-carbonyl]thiazol-2-yl]-4-fluoro-anilino)propanamide] | 6.39
CC(C(N)=O)N(c1ccc(F)cc1)c1nc(N)c(C(=O)c2cc(-c3ccncc3)no2)s1 (racemic) [Example 8, rac-2-(N-[4-amino-5-[3-(4-pyridyl)isoxazole-5-carbonyl]thiazol-2-yl]-4-fluoro-anilino)propanamide] | 6.14
CCOC(=O)c1cc(C(=O)c2sc(N(c3ccc(F)cc3)C(C)C(N)=O)nc2N)on1 (racemic) [Example 9, rac-Ethyl 5-[4-amino-2-(N-(2-amino-1-methyl-2-oxo-ethyl)-4-fluoro-anilino)thiazole-5-carbonyl]isoxazole-3-carboxylate] | 6.72
CC(C(N)=O)N(c1ccc(F)cc1)c1nc(N)c(C(=O)c2cc(C(=O)Nc3ccccc3)no2)s1 (racemic) [Example 10, rac-5-[4-amino-2-(N-(2-amino-1-methyl-2-oxo-ethyl)-4-fluoro-anilino)thiazole-5-carbonyl]-N-phenyl-isoxazole-3-carboxamide] | 7.64
CC(C(N)=O)N(c1ccc(F)cc1)c1nc(N)c(C(=O)c2cc(C(=O)N[C@@H]3C[C@@H]3F)no2)s1 (mixture of isomers) [Example 11, 5-[4-amino-2-(N-(2-amino-1-methyl-2-oxo-ethyl)-4-fluoro-anilino)thiazole-5-carbonyl]-N-[(cis)-2-fluorocyclopropyl]isoxazole-3-carboxamide] | 5.63
CC(C(N)=O)N(c1ccc(F)cc1)c1nc(N)c(C(=O)c2cc(C(=O)Nc3cnn(C)c3)no2)s1 (racemic) [Example 12, rac-5-[4-amino-2-(N-(2-amino-1-methyl-2-oxo-ethyl)-4-fluoro-anilino)thiazole-5-carbonyl]-N-(1-methylpyrazol-4-yl)isoxazole-3-carboxamide] | 6.03
CC(C(N)=O)N(c1ccc(F)cc1)c1nc(N)c(C(=O)c2cc(C(=O)N3CCOCC3)no2)s1 (racemic) [Example 13, rac-2-(N-[4-amino-5-[3-(morpholine-4-carbonyl)isoxazole-5-carbonyl]thiazol-2-yl]-4-fluoro-anilino)propanamide] | 6.01
CC(C(N)=O)N(c1ccc(F)cc1)c1nc(N)c(C(=O)c2cc(C(=O)NC3CC3)no2)s1 (racemic) [Example 15, rac-5-[4-amino-2-(N-(2-amino-1-methyl-2-oxo-ethyl)-4-fluoro-anilino)thiazole-5-carbonyl]-N-cyclopropyl-isoxazole-3-carboxamide] | 6.25
CC(C(N)=O)N(c1ccc(F)cc1)c1nc(N)c(C(=O)c2cc(C(=O)Nc3ccncc3)no2)s1 (racemic) [Example 16, rac-5-[4-amino-2-(N-(2-amino-1-methyl-2-oxo-ethyl)-4-fluoro-anilino)thiazole-5-carbonyl]-N-(4-pyridyl)isoxazole-3-carboxamide] | 6.38
CC(C(N)=O)N(c1ccc(F)cc1)c1nc(N)c(C(=O)c2cc(C(=O)NCC(F)F)no2)s1 (racemic) [Example 17, rac-5-[4-amino-2-(N-(2-amino-1-methyl-2-oxo-ethyl)-4-fluoro-anilino)thiazole-5-carbonyl]-N-(2,2-difluoroethyl)isoxazole-3-carboxamide] | 6.16
CC(C(N)=O)N(c1ccc(F)cc1)c1nc(N)c(C(=O)c2cc(C(=O)N3CCC3)no2)s1 (racemic) [Example 18, rac-2-(N-[4-amino-5-[3-(azetidine-1-carbonyl)isoxazole-5-carbonyl]thiazol-2-yl]-4-fluoro-anilino)propanamide] | 6.31
CC(C(N)=O)N(c1ccc(F)cc1)c1nc(N)c(C(=O)c2cc(C(=O)N3CCCC3)no2)s1 (racemic) [Example 19, rac-2-(N-[4-amino-5-[3-(pyrrolidine-1-carbonyl)isoxazole-5-carbonyl]thiazol-2-yl]-4-fluoro-anilino)propanamide] | 6.50
CC(C(N)=O)N(c1ccc(F)cc1)c1nc(N)c(C(=O)c2cc(C(=O)Nc3cccnc3)no2)s1 (racemic) [Example 20, rac-5-[4-amino-2-(N-(2-amino-1-methyl-2-oxo-ethyl)-4-fluoro-anilino)thiazole-5-carbonyl]-N-(3-pyridyl)isoxazole-3-carboxamide] | 6.52
CC(C(N)=O)N(c1ccc(F)cc1)c1nc(N)c(C(=O)c2cc(C(=O)NC3CCC3)no2)s1 (racemic) [Example 21, rac-5-[4-amino-2-(N-(2-amino-1-methyl-2-oxo-ethyl)-4-fluoro-anilino)thiazole-5-carbonyl]-N-cyclobutyl-isoxazole-3-carboxamide] | 6.53
CC(C(N)=O)N(c1ccc(F)cc1)c1nc(N)c(C(=O)c2cc(C(=O)NCC3CC3)no2)s1 (racemic) [Example 22, rac-5-[4-amino-2-(N-(2-amino-1-methyl-2-oxo-ethyl)-4-fluoro-anilino)thiazole-5-carbonyl]-N-(cyclopropylmethyl)isoxazole-3-carboxamide] | 6.74
CC(C(N)=O)N(c1ccc(F)cc1)c1nc(N)c(C(=O)c2cc(C(=O)NCC(F)(F)F)no2)s1 (racemic) [Example 23, rac-5-[4-amino-2-(N-(2-amino-1-methyl-2-oxo-ethyl)-4-fluoro-anilino)thiazole-5-carbonyl]-N-(2,2,2-trifluoroethyl)isoxazole-3-carboxamide] | 6.67
